Biological target: Histone deacetylase 4 (Homo sapiens, UniProt P56524)
Assay: HDAC4 Biochemical: The Class I HDAC activity of Class IIa Histone Deacetylase (HDAC) inhibitors was quantified by measuring the cellular histone deacetylase enzymatic activity using the fluorogenic substrate, Boc-Lys(Ac)-AMC. This was performed according to the procedure in Example 17, using Boc-Lys(Ac)-AMC substrate in place of Boc-Lys(TFA)-AMC.

Histone deacetylase 4, sequence (P56524 whole entry): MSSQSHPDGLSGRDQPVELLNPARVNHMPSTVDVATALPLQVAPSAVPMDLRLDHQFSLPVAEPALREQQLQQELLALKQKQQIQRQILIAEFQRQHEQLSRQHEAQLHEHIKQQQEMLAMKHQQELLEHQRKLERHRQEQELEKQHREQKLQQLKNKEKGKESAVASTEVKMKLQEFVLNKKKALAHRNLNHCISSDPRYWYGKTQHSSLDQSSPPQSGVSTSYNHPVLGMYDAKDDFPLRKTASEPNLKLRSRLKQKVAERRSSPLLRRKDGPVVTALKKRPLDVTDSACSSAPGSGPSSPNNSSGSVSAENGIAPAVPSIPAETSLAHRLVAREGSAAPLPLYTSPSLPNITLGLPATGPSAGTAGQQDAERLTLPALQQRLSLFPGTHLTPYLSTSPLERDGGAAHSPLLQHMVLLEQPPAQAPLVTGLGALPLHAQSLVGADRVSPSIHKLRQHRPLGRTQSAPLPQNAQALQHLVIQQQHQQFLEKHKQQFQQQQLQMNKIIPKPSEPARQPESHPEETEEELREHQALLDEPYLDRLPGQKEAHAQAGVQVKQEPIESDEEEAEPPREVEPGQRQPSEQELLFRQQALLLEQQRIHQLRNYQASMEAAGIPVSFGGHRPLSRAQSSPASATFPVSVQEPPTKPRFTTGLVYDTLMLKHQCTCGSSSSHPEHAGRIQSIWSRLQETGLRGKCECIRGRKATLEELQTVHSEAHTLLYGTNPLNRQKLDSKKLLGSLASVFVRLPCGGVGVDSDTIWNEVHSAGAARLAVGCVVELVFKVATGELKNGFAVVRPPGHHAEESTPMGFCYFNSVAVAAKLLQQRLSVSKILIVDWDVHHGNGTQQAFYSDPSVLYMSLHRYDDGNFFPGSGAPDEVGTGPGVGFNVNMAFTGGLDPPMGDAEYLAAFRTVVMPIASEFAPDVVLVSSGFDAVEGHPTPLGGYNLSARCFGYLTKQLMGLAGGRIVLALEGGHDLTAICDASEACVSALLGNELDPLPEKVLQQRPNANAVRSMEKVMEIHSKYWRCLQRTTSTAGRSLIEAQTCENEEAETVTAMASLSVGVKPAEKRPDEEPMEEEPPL

IC50: 330 nM
SMILES: O=C(NC1(CN2CC3CCC(C3)C2)CC1)c1ccc(-c2noc(C(F)(F)F)n2)cc1
